Test results taken from patent US7951832B2, “Pyrazole derivatives as kinase inhibitors” (Burnham Institute for Medical Research, priority 2007, dated 2011).

molecular target: PI3 K P110α (Homo sapiens, UniProt P42336); assay: Inhibition of PI3K (P110α); assay type: biochemical; conditions: values printed without % sign, read as IC50, read-out: PI3 K (% at 25 μM, or IC50), P110α
Sequence (P42336 whole entry): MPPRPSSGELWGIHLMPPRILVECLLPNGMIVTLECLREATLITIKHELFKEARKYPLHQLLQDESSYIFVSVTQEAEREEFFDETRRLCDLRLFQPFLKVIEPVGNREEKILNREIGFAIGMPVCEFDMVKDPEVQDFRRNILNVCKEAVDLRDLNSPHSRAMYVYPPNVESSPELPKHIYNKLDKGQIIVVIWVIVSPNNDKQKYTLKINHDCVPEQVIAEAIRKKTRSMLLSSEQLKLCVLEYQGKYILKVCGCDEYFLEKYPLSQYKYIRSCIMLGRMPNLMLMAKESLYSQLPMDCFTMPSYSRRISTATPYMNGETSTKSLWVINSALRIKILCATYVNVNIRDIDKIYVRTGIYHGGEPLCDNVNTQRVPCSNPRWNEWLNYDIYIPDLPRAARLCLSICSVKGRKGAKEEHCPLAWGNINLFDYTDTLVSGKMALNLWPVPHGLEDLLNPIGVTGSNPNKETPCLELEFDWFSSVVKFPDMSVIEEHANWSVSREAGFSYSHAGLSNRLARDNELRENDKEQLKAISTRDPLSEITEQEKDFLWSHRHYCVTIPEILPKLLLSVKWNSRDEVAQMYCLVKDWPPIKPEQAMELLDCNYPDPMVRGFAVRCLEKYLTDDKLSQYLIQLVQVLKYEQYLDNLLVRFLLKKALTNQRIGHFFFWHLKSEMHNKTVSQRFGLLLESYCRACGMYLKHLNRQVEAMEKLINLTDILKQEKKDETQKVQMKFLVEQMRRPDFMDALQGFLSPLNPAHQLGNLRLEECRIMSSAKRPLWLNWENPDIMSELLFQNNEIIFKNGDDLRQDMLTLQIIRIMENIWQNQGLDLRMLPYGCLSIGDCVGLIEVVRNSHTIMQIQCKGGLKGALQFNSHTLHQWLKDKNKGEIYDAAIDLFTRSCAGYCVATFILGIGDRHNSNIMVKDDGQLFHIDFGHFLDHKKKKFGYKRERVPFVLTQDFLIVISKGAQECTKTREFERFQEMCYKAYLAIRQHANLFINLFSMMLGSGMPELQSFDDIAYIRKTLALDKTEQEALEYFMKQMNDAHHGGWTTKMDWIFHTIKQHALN
Sequence (P27986 whole entry partner): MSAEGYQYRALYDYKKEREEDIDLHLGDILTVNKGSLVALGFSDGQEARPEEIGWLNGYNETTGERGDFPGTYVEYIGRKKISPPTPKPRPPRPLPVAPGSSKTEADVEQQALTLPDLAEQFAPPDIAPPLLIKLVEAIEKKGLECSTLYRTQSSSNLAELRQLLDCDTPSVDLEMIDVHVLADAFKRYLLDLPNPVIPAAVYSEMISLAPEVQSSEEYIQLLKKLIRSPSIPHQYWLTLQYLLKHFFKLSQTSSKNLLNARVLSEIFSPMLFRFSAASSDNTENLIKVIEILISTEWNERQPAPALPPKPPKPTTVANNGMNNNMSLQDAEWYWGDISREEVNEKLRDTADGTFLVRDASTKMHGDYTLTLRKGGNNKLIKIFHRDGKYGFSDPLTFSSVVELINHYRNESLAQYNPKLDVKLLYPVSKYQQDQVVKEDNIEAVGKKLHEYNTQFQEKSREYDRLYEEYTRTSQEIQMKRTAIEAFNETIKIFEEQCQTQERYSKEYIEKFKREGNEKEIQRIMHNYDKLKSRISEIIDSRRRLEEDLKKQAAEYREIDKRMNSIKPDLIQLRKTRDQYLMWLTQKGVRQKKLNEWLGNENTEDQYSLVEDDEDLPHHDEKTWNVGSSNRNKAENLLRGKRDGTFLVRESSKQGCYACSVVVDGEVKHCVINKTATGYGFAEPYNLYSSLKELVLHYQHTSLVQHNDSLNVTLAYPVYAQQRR

Row | IC50 [nM] | SMILES
1 | 82 | COc1ccc(C(NC(=O)c2ccc3c(C#Cc4cncn4C)n[nH]c3c2)c2ccncc2)cc1 (stereo not shown)
2 | 83 | Nc1ccc(C#Cc2n[nH]c3ccccc23)cc1
3 | 62 | Cn1cncc1C#Cc1n[nH]c2ccccc12

molecular target: mTOR (Homo sapiens, UniProt P42345); assay: Inhibition of mTOR; assay type: biochemical; conditions: IC50

Row | IC50 [µM] | SMILES
4 | 31 | O=C(O)c1ccc(C#Cc2n[nH]c3ccccc23)cc1
5 | > 100 | Cn1cncc1C#Cc1n[nH]c2ccccc12

same assay, conditions: read-out: mTOR (Inhibition % at 50 μM, or IC50); inhibition at 50 μM

Row | inhibition at 50 µM [%] | SMILES
6 | 5 | COc1ccc(C#Cc2n[nH]c3ccccc23)cc1
7 | 3 | C(#CC1CCCC1)c1n[nH]c2ccccc12
8 | 2 | C(#CC1CC1)c1n[nH]c2ccccc12
9 | -11 | Cn1cncc1C#Cc1n[nH]c2cc(C(=O)NC34CC5CC(CC(C5)C3)C4)ccc12
10 | -5 | Cn1cncc1C#Cc1n[nH]c2cc(C(=O)NCc3ccco3)ccc12
11 | -1 | O=[N+]([O-])c1ccc2c(C#Cc3ccccc3)n[nH]c2c1
12 | 3 | Cn1cncc1C#Cc1n[nH]c2cc(C(=O)NCc3cc4ccccc4[nH]3)ccc12
13 | 5 | COc1ccc2cc(C#Cc3n[nH]c4ccccc34)ccc2c1
14 | -6 | CC(C)(C)OC(=O)NCCCCCNC(=O)c1ccc(C#Cc2n[nH]c3ccccc23)cc1
15 | 7 | C(#Cc1n[nH]c2ncccc12)c1ccccn1
16 | 7 | C(#Cc1n[nH]c2ccccc12)c1ccsc1
17 | 30 | C(#Cc1n[nH]c2ccccc12)c1ccncc1
18 | 13 | C(#Cc1n[nH]c2ccccc12)c1ccccn1
19 | 24 | Cn1cncc1C#Cc1n[nH]c2cc(C(=O)O)ccc12
20 | 15 | C(#Cc1n[nH]c2ncccc12)c1ccncc1
21 | 9 | Nc1ccc(C#Cc2n[nH]c3ccccc23)cc1
22 | -7 | Cc1ccc2[nH]c(C(C)NC(=O)c3ccc4c(C#Cc5cncn5C)n[nH]c4c3)nc2c1 (stereo not shown)
23 | -17 | Cn1cncc1C#Cc1n[nH]c2cc(C(=O)NCc3ccccn3)ccc12
24 | 4 | COC(=O)c1ccc2c(C#Cc3cncn3C)n[nH]c2c1
25 | 6 | Fc1cc(F)cc(C#Cc2n[nH]c3ccccc23)c1
26 | 34 | C(#Cc1n[nH]c2ccccc12)c1cccnc1
27 | 9 | Nc1cccc(C#Cc2n[nH]c3ccccc23)c1
28 | -14 | Cn1cncc1C#Cc1n[nH]c2cc(C(=O)NCc3cccs3)ccc12
29 | 6 | C(#Cc1n[nH]c2ccccc12)c1ccccc1
30 | 1 | N#Cc1ccc(C#Cc2n[nH]c3ccccc23)cc1
31 | 3 | NCCCCCNC(=O)c1ccc(C#Cc2n[nH]c3ccccc23)cc1
32 | -3 | FC(F)(F)c1cc(C#Cc2n[nH]c3ccccc23)cc(C(F)(F)F)c1
33 | -27 | Cn1cncc1C#Cc1n[nH]c2cc(C(=O)NC(c3ccncc3)c3ccc(Cl)cc3)ccc12 (stereo not shown)
34 | 46 | Cn1cncc1C#Cc1n[nH]c2ccccc12
